Broadly, the melting point is the temperature, or range, at which the solid turns liquid. In the case of `CCOc1cn(C2CC(O)C(CO)O2)c(=O)[nH]c1=O` (stereo not drawn), the melting point lay within 179 to 181 °C.

`Cc1cccc2c1-c1ccccc1C2CO` (stereo not drawn): the melting point fell in the range of 120 to 122 °C.

`CC(Nc1ccc(Cc2ccccc2)cc1)C(=O)O` (stereo not drawn) showed a melting point of 119 °C. Next, `Cc1cc(-c2ccnc(Cl)c2)n(-c2ccc(Cl)cc2)n1`: 110 °C. In turn, `C=CCOc1cc(F)nc(N)n1` showed a melting point of 62 to 66 °C.

Turning to `Cc1nc(-c2ccc(F)cc2)n(-c2ccc(S(C)(=O)=O)cc2)n1`, the melting point was 143 to 144 °C. Next, `Cc1ccc(-c2cc(NC(=O)C3Cc4ccccc4C3)n[nH]2)cc1`: 220 to 225 °C; `Cc1oc(-c2ccccc2)nc1COc1ccc(CCCc2nnn[nH]2)cn1`: 137 to 138 °C; `CC(C)Cc1cc2cc(O)c(Cl)c(Cl)c2s1`: 58 to 59 °C. Next, `CCCCN1CCC(C(=O)O)(S(=O)(=O)c2ccc(OC)cc2)CC1`: 206 °C; `COc1ccccc1-c1nc(=S)n(Cc2ccccc2)[nH]1`: 142 to 144 °C; `COc1ccc2c(c1)C(=O)N(c1ccc3nc(C)ncc3c1)C2`: 245 to 247 °C. Next, `CN1C(=O)COc2c(C(=O)O)cc([N+](=O)[O-])cc21`: 256 to 259 °C. For the compound `Cc1c(C2(N(C)C)CCC(c3cccc(F)c3)(N(C)C)CC2)[nH]c2ccccc12` (stereo not drawn), the melting point was 126 to 132 °C. Next, `COC(=O)c1ccc(OC)c(OC)c1N`: 66 to 67 °C; `COc1cc2c3c4c(c(-c5ccccc5Cl)cc3n(C)c2cc1OCc1ccccc1)C(=O)NC4=O`: 282 to 285 °C; `CCCCc1ncc(C=C2C(=O)Nc3ccc(Cl)cc32)n1Cc1ccc(C(=O)OC)cc1`: 238 to 241 °C. In the case of `COc1cc(-c2oc3ccccc3c(=O)c2C(=O)N2CCN(c3ccccn3)CC2)cc(OC)c1OC`, the melting point was 90 to 95 °C.

In the case of `COc1ccc(S(=O)(=O)c2ccccc2)cc1S(=O)(=O)NCCc1cccnc1`, the melting point was in the range of 181 to 183 °C. Next, `Cc1c(-c2ccc(O)c(F)c2)sc(C=O)c1-c1ccc(O)cc1`: 227 to 229 °C; `Cc1cccc2ncc(C(=O)NC(C)(C)C)c(=O)n12`: 164 to 166 °C. Next, `CS(=O)(=O)N(CCc1ccccn1)CC(O)(Cn1cncn1)c1ccc(Cl)cc1Cl` (stereo not drawn): 151 to 153 °C. Next, `COc1ccc(OCCCBr)c(C2Sc3ccccc3N(C)C2=O)c1` (single isomer, unassigned; (-)): 77 to 78 °C; `Cn1c(-c2ccccc2Sc2nc3ccccc3[nH]2)nc2ccccc21`: 246 to 247 °C. Regarding `CC1(C)C[C@@H](n2c(=O)c(Cl)nc3ccccc32)c2cc(C#N)ccc2O1`, the melting point lay in the range of 174 to 176 °C.

`O=c1[nH]c(-c2ccccc2)c(-c2ccccc2S(=O)(=O)NCCCBr)o1` yielded a melting point of 232 to 235 °C. Next, `O=C1CC2(CCCCC2)CC(=O)N1c1ccncc1`: 213 to 215 °C; `Fc1cc(-c2ncon2)ccc1CBr`: 87.3 °C; `COc1ccc(-c2cc(Cc3ccc(OC)c(OC4CCCC4)c3)cn2-c2ccc(S(N)(=O)=O)cc2)cc1`: 81 to 84 °C. Next, `COc1cc(Cc2cnc(N)nc2N)cc2c1OC(C)(C)C=C2C#CCO`: 236 to 237 °C; `O=C(CC(CC(=O)c1ccc(F)cc1)c1cccc(-c2nnn[nH]2)c1)c1ccc(F)cc1`: 162 °C; `COc1cc2c(Nc3cccc(Cl)c3F)ncnc2cc1OC1CCN(C(=O)C2CCCO2)CC1` (stereo not drawn): 193 to 194 °C. For the compound `CC(=O)N(C)C(=N[N+](=O)[O-])N(Cc1cnc(Cl)s1)C(C)=O`, the melting point was in the range of 72 to 74 °C. Next, `COC(=O)C(C)(Cc1c[nH]c2ccc(OC)cc12)[N+](=O)[O-]` (racemic): 109 to 110 °C; `O=C1CCCc2ccc(OCc3ccc4ccccc4n3)cc21`: 98.5 to 102 °C; `COc1cccc(NC(=O)N[C@H]2C[C@@](N)(C(=O)O)[C@@H]3[C@@H](C(=O)O)[C@@H]32)c1` (relative stereo): more than 250 °C. Next, `O=C(Nc1nccs1)C(CC1CCCC1)c1ccc(-c2ccc3[nH]ccc3c2)cc1` (stereo not drawn): 112 to 115 °C; `CC(=O)N(C)c1ccc(CO)cc1`: 83.5 to 85.5 °C. `BrC(Br)(Br)c1nnnn1-c1ccccc1` showed a melting point of 141 to 142 °C. Next, `CC(C)(C)OC(=O)N1CCN(CC(=O)O)CC1`: 195 to 197 °C; `O=C(c1ccccc1)c1ccc2nc(C(F)(F)F)c(Br)nc2c1`: 152 to 154 °C; `Cc1ccc(S(=O)(=O)N(C)c2ccc(Cl)cc2C#N)cc1`: 145 to 147 °C. Next, `CC(=O)Oc1cccc(C(=O)N[C@@H](Cc2ccccc2)[C@H](OC(C)=O)C(=O)O)c1C`: 152 to 154 °C; `COc1ccc(CSc2nc3cnccc3[nH]2)cc1C`: 158 to 159 °C. Regarding `Cc1c(N2CCC(C(N)c3ccccn3)C2)c(F)c(N)c2c(=O)c(C(=O)O)cn(C3CC3F)c12` (stereo not drawn), the melting point lay within 127 to 129 °C. Next, `O=c1c(CCCc2ccncc2)cc2cccnc2n1-c1ccc2nsnc2c1`: 194 to 196 °C. In the case of `CC(C)(C(=O)OCC(=O)c1ccccc1)n1c(=O)[nH]c2cc3ccccc3cc2c1=O`, the melting point lay within 184 to 185 °C.

Turning to `CCOC(=O)N1CCC(C(=O)O)=Cc2ccccc21`, the melting point is 176 °C.

As to `O=C(O)c1cc(CCCBr)ccc1O`, the melting point fell in the range of 68 to 73 °C.

`Cc1cc(OCC(O)CNC(C)(C)C)ccc1-c1nc(C(F)(F)F)c[nH]1` (stereo not drawn): the melting point is 162 to 164 °C. Next, `CC(C)OC(=O)N1CCC(c2ccc3oc(-c4ccc(C(F)(F)F)cc4)nc3c2)CC1`: 145 to 148 °C; `CN1CCCC(c2ccccc2)c2[nH]c3ccccc3c2CC1` (stereo not drawn): 117 to 119 °C. Turning to `O=C(O)CCc1cc(Br)c2c(c1)CCO2`, the melting point fell in the range of 117 to 118 °C. Next, `CCn1c(-c2ccnc(N)c2)nnc1C(C)(C)Oc1c(F)cc(Cl)cc1F`: 150 °C; `CC(=O)c1ccc(N2C(=O)C(=O)N(c3cccc(Cl)c3)C2=O)cc1`: 148 °C. For `CS(=O)(=O)c1csc(NC(=O)c2ccccc2O)n1`, the melting point lay in the range of 231 to 235 °C. `Nc1ncc(-c2ccc([N+](=O)[O-])c(Cl)c2Cl)c(N)n1` had a melting point of 237 to 239 °C. Next, `C=CCN1CCc2cc(OC)c(O)c3c2C1Cc1cc(O)c(OC)cc1-3` (single isomer, unassigned; (+)): 161 to 171 °C; `NCCOc1cccc2[nH]ccc12`: 123 to 125 °C.

In the case of `COc1cc(N)cc(N)c1`, the melting point fell in the range of 79 to 80 °C. In the case of `CCN(CC)C(=O)COc1cc(-c2ccccc2)nc2ccccc12`, the melting point was determined as 97 °C. Next, `CC(C)(C)COc1ccc(N(CC(=O)O)C(=O)c2cnn(-c3ccc(F)cc3)c2)cc1C#N`: 274 to 275 °C. Next, `Cc1cc(-c2ccc(Cl)cc2)cn2c(-c3nc(-c4cccc(S(N)(=O)=O)c4)no3)cnc12`: 301 °C; `Cc1cc2[nH]c(=O)n(S(=O)(=O)c3ccc(Cl)cc3)c(=O)c2cc1C`: 221 to 222 °C. Next, `COC(=O)C(C)(C)OCC#Cc1cc(C(F)(F)F)ccc1NS(=O)(=O)c1ccc2c(c1)CCN2C(C)=O`: 134 to 136 °C; `COc1ccc(-c2nn(Cc3ccc(Cl)cc3)c(=O)cc2-c2ccncc2)cc1`: 175 to 176 °C.

For the compound `CCC1(CC)c2cc(Br)ccc2-c2ccc(I)cc21`, the melting point lay within 162 to 164 °C. Next, `Nc1nc2c(sc(=O)n2CC(O)CO)c(=O)[nH]1` (stereo not drawn): 248 to 254 °C; `Cc1nnc(N2N=C(c3cc(C)c([N+](=O)[O-])c(C)c3)c3cc4c(cc3C[C@H]2C)OCO4)o1`: 132 to 133 °C; `O=C(c1ccccc1)c1cc(O)c(O)c([N+](=O)[O-])c1`: 132 °C. Next, `Cc1nc(Cc2ccccc2)c2c(c1O)COC(C(C)C)OC2` (stereo not drawn): 193 to 194 °C; `COc1cc2c(cc1OC(C)C)-c1cc3c(n1CC2)C(=O)N(C(C)(C)C)CCOC3`: 125 to 127 °C. `CCCCCC(=O)CCCC(=O)O` registered a melting point of 54 to 55 °C. `CCCN(CCC)C(=O)Cn1c(=O)[nH]c2cnc(-c3ccccc3)nc21`: the melting point is 190 to 191 °C. Next, `CCC(=O)Nc1ccc2ncnc(Nc3cccc(Br)c3)c2c1`: 265 to 266 °C; `CC(O)C(=O)Nc1ccc(C2=NNC(=O)NC2C)cc1` (stereo not drawn): 217 to 225 °C. Next, `COc1ccc(C(=O)NCCN2CCC(Oc3ccc(Cl)c(Cl)c3)CC2)cc1`: 110 to 112 °C. `CNC(=O)c1cccc(I)c1` came in with a melting point of 94 to 97 °C.

Turning to `Cc1ccc(C(=O)Nc2cc(-n3ccnc3C)cc(C(F)(F)F)c2)cc1Nc1nccc(-c2cccnc2)n1`, the melting point was in the range of 242 to 247 °C. Next, `CCS(=O)(=O)c1cc(C(=O)NCC2CCCN2CC2CCCC2)c(OC)cc1N` (stereo not drawn): 140 to 141 °C. Next, `CCCc1cc2c(s1)[C@@H](O)[C@H]1C[C@]2(O)C(=O)O1`: 120 to 125 °C; `Cc1nc(-n2ccc(O)cc2=O)sc1C(=O)NCc1ccccc1`: 240 to 243 °C.

`O=C1c2ccccc2C(=O)N1CCCN1CCN(c2ccccc2)CC1` had a melting point of 105 to 122 °C.

Compound `CN(C)C1CCN(c2nc(N3CCOCC3)c3ncnc(N(CC(=O)O)Cc4ccccc4)c3n2)CC1` displayed a melting point of 151 to 155 °C. Next, `CS(=O)(=O)Nc1ccc(Nc2nc(NC3CCCC3)c3nc[nH]c3n2)cc1`: 261 to 265 °C; `CCc1nn2c(-c3cccc(C(F)(F)F)c3)ccnc2c1C#N`: 144 to 146 °C. Next, `Cc1[nH]c(/C=C2\C(=O)Nc3cc(NC(=O)c4c[nH]cc(-c5ccc(F)cc5)c4=O)ccc32)c(C)c1CC(=O)N1CCOCC1`: 235 °C. Next, `Oc1cc(-c2ncnc(C(F)F)c2Cl)c(F)cc1Cl`: 141 to 143 °C.

The record behind these values is a melting point compilation (Tetko et al.; mined from patent text by program, amines drawn as free bases though some values may be those of a salt).
